Test results as given in the supplement of paper PMC10307832.

How the values were obtained:
Assay in all cases: relative viability (nuclei count vs DMSO), 5 days (fraction); higher = more cells survive
SGI-1776 + Palbociclib = compound: CN1CCC(CNc2ccc3ncc(-c4cccc(OC(F)(F)F)c4)n3n2)CC1 [SGI-1776] + CC(=O)c1c(C)c2cnc(Nc3ccc(N4CCNCC4)cn3)nc2n(C2CCCC2)c1=O [Palbociclib] (partner 0.5 µM)
Outline: (§1)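 Lung cancer cell lines, seeded in 1536-well plates, were treated the following day by pin tool with a single drug or with five library-drug doses (not always all listed) in √10 steps on top of a fixed anchor-drug dose. Cells were fixed and nuclei stained in one step after 5 days, and nuclei were counted. Relative viability is the nuclei count for treated wells divided by that for vehicle wells, reported as medians of duplicate plates.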

Entinostat + Palbociclib = compound: Nc1ccccc1NC(=O)c1ccc(CNC(=O)OCc2cccnc2)cc1 [Entinostat] + CC(=O)c1c(C)c2cnc(Nc3ccc(N4CCNCC4)cn3)nc2n(C2CCCC2)c1=O [Palbociclib] (partner 0.5 µM)
Outline: as §1

[1] = compound: C1COCCN1C2=NC(=NC3=C2OC4=C3C=CC=N4)C5=CC(=CC=C5)NC(=O)C6=CN=C(C=C6)N + NC(=O)Nc1cc(-c2cccc(F)c2)sc1C(=O)N[C@H]1CCCNC1 [AZD7762] (partner 0.2 µM)
Outline: as §1

[2] = compound: C1COCCN1C2=NC(=NC3=C2OC4=C3C=CC=N4)C5=CC(=CC=C5)NC(=O)C6=CN=C(C=C6)N + CC1(C)CCC(c2ccc(Cl)cc2)=C(CN2CCN(c3ccc(C(=O)NS(=O)(=O)c4ccc(N[C@H](CCN5CCOCC5)CSc5ccccc5)c(S(=O)(=O)C(F)(F)F)c4)cc3)CC2)C1 [Navitoclax] (partner 0.5 µM)
Outline: as §1

Cell Line	relative viability (SGI-1776 + Palbociclib; first compound 0.08 µM)	relative viability (SGI-1776 + Palbociclib; first compound 0.8 µM)	relative viability (SGI-1776 + Palbociclib; first compound 2.53 µM)	relative viability (SGI-1776 + Palbociclib; first compound 8 µM)	relative viability (Entinostat + Palbociclib; first compound 0.02 µM)	relative viability (Entinostat + Palbociclib; first compound 0.06325 µM)	relative viability (Entinostat + Palbociclib; first compound 0.2 µM)	relative viability (Entinostat + Palbociclib; first compound 0.6325 µM)	relative viability (Entinostat + Palbociclib; first compound 2 µM)	relative viability ([1]; first compound 0.02 µM)	relative viability ([1]; first compound 0.2 µM)	relative viability ([1]; first compound 0.6325 µM)	relative viability ([1]; first compound 2 µM)	relative viability ([2]; first compound 0.02 µM)	relative viability ([2]; first compound 0.06325 µM)	relative viability ([2]; first compound 0.2 µM)	relative viability ([2]; first compound 0.6325 µM)	relative viability ([2]; first compound 2 µM)	relative viability ([1]; first compound 0.06325 µM)
EPLC-272H	0.32	0.336	0.354	0.226	0.406	0.334	0.364	0.282	0.215	0.217	0.251	0.23	0.19	1.23	1.06	1.13	1.08	0.893	
A-427	0.567	0.541	0.547	0.456	0.555	0.537	0.463	0.401	0.368	0.788	0.673	0.655	0.689	1	0.964	0.812	0.864	0.835	0.746
